In BigSolDB 2.1:

CCCCCCCCC(=O)NCc1ccc(O)c(OC)c1
solubility (mole fraction)
Conditions	in DMSO	in MTBE	in acetone	in acetonitrile	in ethyl acetate	in methanol	in n-hexane	in water
293.2 K	0.257	0.019	0.161	0.0118	0.0625	0.219	4.06e-05	1.64e-05
298.2 K	0.315	0.0472	0.229	0.0357	0.117	0.28	7e-05	1.93e-05
303.2 K	0.403	0.114	0.299	0.0943	0.199	0.349	0.000119	2.32e-05
308.2 K	0.495	0.27	0.39	0.232	0.309	0.428	0.000189	2.71e-05
313.2 K	0.595	0.427	0.499	0.38	0.421	0.489	0.000296	3.24e-05
318.2 K	0.671	0.569	0.6	0.553	0.566	0.583	0.000457	3.7e-05
323.2 K	0.763	0.729	0.714	0.714	0.712	0.736	0.000595	4.27e-05
